We go through 44 compounds from patent publication US10550105B2 (Ribon Therapeutics Inc., priority 2018, dated 2020).

Sequence of PARP7 (Q7Z3E1 whole entry): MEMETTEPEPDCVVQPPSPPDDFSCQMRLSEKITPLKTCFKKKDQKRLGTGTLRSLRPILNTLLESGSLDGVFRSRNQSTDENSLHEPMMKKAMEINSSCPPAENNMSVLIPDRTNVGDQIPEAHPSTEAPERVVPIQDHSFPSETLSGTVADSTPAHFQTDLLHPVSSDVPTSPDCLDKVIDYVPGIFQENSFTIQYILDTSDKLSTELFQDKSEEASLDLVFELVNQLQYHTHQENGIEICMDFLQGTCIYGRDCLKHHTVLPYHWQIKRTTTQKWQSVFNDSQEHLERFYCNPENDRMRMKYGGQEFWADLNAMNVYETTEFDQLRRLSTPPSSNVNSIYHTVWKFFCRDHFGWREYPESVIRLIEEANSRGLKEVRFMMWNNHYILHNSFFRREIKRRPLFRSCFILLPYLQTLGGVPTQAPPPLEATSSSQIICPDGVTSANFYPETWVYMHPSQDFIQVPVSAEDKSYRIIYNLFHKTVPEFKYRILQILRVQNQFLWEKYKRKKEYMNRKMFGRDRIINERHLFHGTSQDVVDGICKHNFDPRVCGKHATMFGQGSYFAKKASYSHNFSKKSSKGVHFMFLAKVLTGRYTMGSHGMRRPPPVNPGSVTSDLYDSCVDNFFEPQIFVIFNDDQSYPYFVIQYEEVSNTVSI

This assay deals with PARP7 (Homo sapiens (Human), UniProt Q7Z3E1). Put plainly: Enzymatic assay for inhibition of PARP7: TR-FRET displacement of biotinylated Probe A from the TIPARP active site. The settings on record: Table A-1. The format is binding. How it is done:
20 nL of a dose response curve of each test compound was spotted in black 384-well polystyrene proxiplates (Perkin Elmer) using a Mosquito (TTP Labtech). […] Reactions were incubated at 25° C. for an additional 30 min, then read on an Envision platereader equipped with a LANCE/DELFIA top mirror (Perkin Elmer) using excitation of 320 nm and emission of 615 nm and […] with a 90 μs delay. The ratio of the 665/615 nm emission were calculated for each well to determine the amount of complex of TIPARP and Probe A in each well. […] The Hill Coefficient is normally allowed to float but may also be fixed at 1 in a 3-parameter fit. Y is the % inhibition and x is the compound concentration.
The IC50 is the midpoint of a concentration-inhibition curve. `O=C(C[C@@H]1CC[C@@H](CNc2cn[nH]c(=O)c2C(F)(F)F)O1)N1CCN(c2ccc(C(F)(F)F)cn2)CC1` (single isomer, unassigned) [Example 546 Isomer A] showed an IC50 below 100 nM.
The compound `O=C(C[C@H]1CC[C@H](CNc2cn[nH]c(=O)c2C(F)(F)F)O1)N1CCN(c2ccc(C(F)(F)F)cn2)CC1` (single isomer, unassigned) [Example 546 Isomer B] had an IC50 below 100 nM.
Turning to `O=C(C[C@H]1CC[C@@H](CNc2cn[nH]c(=O)c2C(F)(F)F)O1)N1CCN(c2ccc(C(F)(F)F)cn2)CC1` (single isomer, unassigned) [Example 546 Isomer C], the IC50 is below 100 nM.
For `O=C(C[C@@H]1CC[C@H](CNc2cn[nH]c(=O)c2C(F)(F)F)O1)N1CCN(c2ccc(C(F)(F)F)cn2)CC1` (single isomer, unassigned) [Example 546 Isomer D], the IC50 was below 100 nM.
Turning to `O=C(C[C@@H]1CC[C@@H](COc2cn[nH]c(=O)c2C(F)(F)F)O1)N1CCN(c2ncc(Cl)cn2)CC1` (single isomer, unassigned) [Example 565 Isomer A], the IC50 lay in the range of 100 to 1000 nM.
As to `O=C(C[C@H]1CC[C@H](COc2cn[nH]c(=O)c2C(F)(F)F)O1)N1CCN(c2ncc(Cl)cn2)CC1` (single isomer, unassigned) [Example 565 Isomer B], the IC50 was in the range of 100 to 1000 nM.
As for `O=C(C[C@H]1CC[C@@H](COc2cn[nH]c(=O)c2C(F)(F)F)O1)N1CCN(c2ncc(Cl)cn2)CC1` (single isomer, unassigned) [Example 565 Isomer C], the IC50 is below 100 nM.
`O=C(C[C@@H]1CC[C@H](COc2cn[nH]c(=O)c2C(F)(F)F)O1)N1CCN(c2ncc(Cl)cn2)CC1` (single isomer, unassigned) [Example 565 Isomer D] gave an IC50 below 100 nM.
For `O=C(C[C@@H]1CC[C@@H](COc2cn[nH]c(=O)c2Cl)O1)N1CCN(c2ncc(Cl)cn2)CC1` (single isomer, unassigned) [Example 566 Isomer A], the IC50 is at least 1000 nM.
Compound `O=C(C[C@H]1CC[C@H](COc2cn[nH]c(=O)c2Cl)O1)N1CCN(c2ncc(Cl)cn2)CC1` (single isomer, unassigned) [Example 566 Isomer B] came in with an IC50 of at least 1000 nM.
`O=C(C[C@H]1CC[C@@H](COc2cn[nH]c(=O)c2Cl)O1)N1CCN(c2ncc(Cl)cn2)CC1` (single isomer, unassigned) [Example 566 Isomer C] gave an IC50 of 100 to 1000 nM.
In the case of `O=C(C[C@@H]1CC[C@H](COc2cn[nH]c(=O)c2Cl)O1)N1CCN(c2ncc(Cl)cn2)CC1` (single isomer, unassigned) [Example 566 Isomer D] it was at least 1000 nM.
As to `O=C(C[C@H]1CC[C@@H](CNc2cn[nH]c(=O)c2C(F)(F)F)O1)N1CCN(c2ncc(Cl)cn2)CC1` (single isomer, unassigned) [Example 567 Isomer A], the IC50 was below 100 nM.
The same measure for `O=C(C[C@@H]1CC[C@H](CNc2cn[nH]c(=O)c2C(F)(F)F)O1)N1CCN(c2ncc(Cl)cn2)CC1` (single isomer, unassigned) [Example 567 Isomer B]: below 100 nM.
The same measure for `O=C(C[C@@H]1CC[C@@H](CNc2cn[nH]c(=O)c2C(F)(F)F)O1)N1CCN(c2ncc(Cl)cn2)CC1` (single isomer, unassigned) [Example 567 Isomer C]: below 100 nM.
Compound `O=C(C[C@H]1CC[C@H](CNc2cn[nH]c(=O)c2C(F)(F)F)O1)N1CCN(c2ncc(Cl)cn2)CC1` (single isomer, unassigned) [Example 567 Isomer D] registered an IC50 below 100 nM.
With `O=C(C[C@@H]1CC[C@@H](CNc2cn[nH]c(=O)c2C(F)(F)F)O1)N1CCN(c2ncc(C(F)(F)F)cn2)CC1` (single isomer, unassigned) [Example 568 Isomer A], the IC50 was below 100 nM.
Compound `O=C(C[C@H]1CC[C@H](CNc2cn[nH]c(=O)c2C(F)(F)F)O1)N1CCN(c2ncc(C(F)(F)F)cn2)CC1` (single isomer, unassigned) [Example 568 Isomer B] returned an IC50 below 100 nM.
Compound `COC[C@@H](COCCC(=O)N1CCN(c2ncc(C(F)(F)F)cn2)CC1)Oc1cn[nH]c(=O)c1C(F)(F)F` (single isomer, unassigned) [Example 570 Isomer A] showed an IC50 below 100 nM.
`COC[C@H](COCCC(=O)N1CCN(c2ncc(C(F)(F)F)cn2)CC1)Oc1cn[nH]c(=O)c1C(F)(F)F` (single isomer, unassigned) [Example 570 Isomer B] came in with an IC50 of 100 to 1000 nM.
The same measure for `COC[C@H](CO[C@H](C)CC(=O)N1CCN(c2ccc(C#N)cn2)CC1)Oc1cn[nH]c(=O)c1C(F)(F)F` (single isomer, unassigned) [Example 571 Isomer A]: below 100 nM.
For the compound `COC[C@@H](CO[C@@H](C)CC(=O)N1CCN(c2ccc(C#N)cn2)CC1)Oc1cn[nH]c(=O)c1C(F)(F)F` (single isomer, unassigned) [Example 571 Isomer B], the IC50 lay within 100 to 1000 nM.
Take `COC[C@H](CO[C@H](C)CC(=O)N1CCN(c2ccc(C#N)cn2)CC1)Oc1cn[nH]c(=O)c1C(F)(F)F` (single isomer, unassigned) [Example 571 Isomer C]: the IC50 was at least 1000 nM.
`COC[C@@H](CO[C@H](C)CC(=O)N1CCN(c2ccc(C#N)cn2)CC1)Oc1cn[nH]c(=O)c1C(F)(F)F` (single isomer, unassigned) [Example 571 Isomer D]: the IC50 lay within 100 to 1000 nM.
For `N#Cc1ccc(N2CCN(C(=O)CCO[C@H]3CCC[C@@H]3Oc3cn[nH]c(=O)c3C(F)(F)F)CC2)nc1` (single isomer, unassigned) [Example 572 Isomer A], the IC50 was below 100 nM.
As for `N#Cc1ccc(N2CCN(C(=O)CCO[C@@H]3CCC[C@H]3Oc3cn[nH]c(=O)c3C(F)(F)F)CC2)nc1` (single isomer, unassigned) [Example 572 Isomer B], the IC50 lay in the range of 100 to 1000 nM.
For `N#Cc1ccc(N2CCN(C(=O)CCO[C@@H](CO)COc3cn[nH]c(=O)c3C(F)(F)F)CC2)nc1` (single isomer, unassigned) [Example 573 Isomer A], the IC50 was below 100 nM.
The same measure for `N#Cc1ccc(N2CCN(C(=O)CCOC[C@@H](CO)Oc3cn[nH]c(=O)c3C(F)(F)F)CC2)nc1` (single isomer, unassigned) [Example 573 Isomer B]: below 100 nM.
Consider `N#Cc1ccc(N2CCN(C(=O)CCOC[C@H](CO)Oc3cn[nH]c(=O)c3C(F)(F)F)CC2)nc1` (single isomer, unassigned) [Example 573 Isomer C], for which the IC50 was below 100 nM.
`N#Cc1ccc(N2CCN(C(=O)CCO[C@H](CO)COc3cn[nH]c(=O)c3C(F)(F)F)CC2)nc1` (single isomer, unassigned) [Example 573 Isomer D] showed an IC50 below 100 nM.
`O=C(C[C@@H]1CC[C@@H](COc2cn[nH]c(=O)c2C(F)(F)F)O1)N1CCN(c2ncc(C(F)(F)F)cn2)CC1` (single isomer, unassigned) [Example 574 Isomer A]: the IC50 fell in the range of 100 to 1000 nM.
Consider `O=C(C[C@H]1CC[C@H](COc2cn[nH]c(=O)c2C(F)(F)F)O1)N1CCN(c2ncc(C(F)(F)F)cn2)CC1` (single isomer, unassigned) [Example 574 Isomer B], for which the IC50 lay in the range of 100 to 1000 nM.
`O=C(C[C@@H]1CC[C@@H](COc2cn[nH]c(=O)c2Cl)O1)N1CCN(c2ncc(C(F)(F)F)cn2)CC1` (single isomer, unassigned) [Example 575 Isomer A] had an IC50 of at least 1000 nM.
For the compound `O=C(C[C@H]1CC[C@H](COc2cn[nH]c(=O)c2Cl)O1)N1CCN(c2ncc(C(F)(F)F)cn2)CC1` (single isomer, unassigned) [Example 575 Isomer B], the IC50 is at least 1000 nM.
In turn, `C[C@H](CC(=O)N1CCN(c2ccc(C#N)cn2)CC1)OC[C@H](C)Oc1cn[nH]c(=O)c1C(F)(F)F` (single isomer, unassigned) [Example 576 Isomer A] registered an IC50 below 100 nM.
In the case of `C[C@@H](CC(=O)N1CCN(c2ccc(C#N)cn2)CC1)OC[C@H](C)Oc1cn[nH]c(=O)c1C(F)(F)F` (single isomer, unassigned) [Example 576 Isomer B] it was below 100 nM; in that of `C[C@@H](COCCC(=O)N1CCN(c2ncc(Cl)cn2)CC1)Oc1cn[nH]c(=O)c1Cl` (single isomer, unassigned) [Example 577 Isomer A], below 100 nM.
`C[C@@H](COc1cn[nH]c(=O)c1Cl)OCCC(=O)N1CCN(c2ncc(Cl)cn2)CC1` (single isomer, unassigned) [Example 577 Isomer B] registered an IC50 below 100 nM.
Regarding `C[C@@H](COCCC(=O)N1CCN(c2ncc(C(F)(F)F)cn2)CC1)Oc1cn[nH]c(=O)c1Cl` (single isomer, unassigned) [Example 578 Isomer A], the IC50 was below 100 nM.
In the case of `N#Cc1ccc(N2CCN(C(=O)C[C@@H]3CC[C@@H](COc4cn[nH]c(=O)c4C(F)(F)F)O3)CC2)nc1` (single isomer, unassigned) [Example 580 Isomer A] it was 100 to 1000 nM.
`N#Cc1ccc(N2CCN(C(=O)C[C@H]3CC[C@H](COc4cn[nH]c(=O)c4C(F)(F)F)O3)CC2)nc1` (single isomer, unassigned) [Example 580 Isomer B] returned an IC50 of 100 to 1000 nM.
The same measure for `N#Cc1ccc(N2CCN(C(=O)C[C@H]3CC[C@@H](CNc4cn[nH]c(=O)c4C(F)(F)F)O3)CC2)nc1` (single isomer, unassigned) [Example 581 Isomer A]: below 100 nM; for `N#Cc1ccc(N2CCN(C(=O)C[C@@H]3CC[C@@H](CNc4cn[nH]c(=O)c4C(F)(F)F)O3)CC2)nc1` (single isomer, unassigned) [Example 581 Isomer B]: below 100 nM; for `N#Cc1ccc(N2CCN(C(=O)C[C@@H]3CC[C@@H](COc4cn[nH]c(=O)c4Cl)O3)CC2)nc1` (single isomer, unassigned) [Example 582 Isomer A]: at least 1000 nM.
